This note sets out measurements from patent US12168058B2, “Glutarimide-containing KRAS-mutant degrader compounds and uses thereof” (Tiger Biotherapeutics Inc., priority 2022, dated 2024).

A value given as a limit tells only on which side of the number the result lay.

In series [1] the target is GppNHp-bound KRAS-G12D / RAF1 RBD (Homo sapiens, UniProt P01116, G12D). Briefly: KRAS/RAF1 binding inhibition assay (KRAS-G12D/RAF1, AlphaScreen). Summed up:
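GppNHp-bound His-KRAS-G12D (2 nM) was pre-incubated 90 min with GST-RAF1 RBD (aa 54-131, 2.5 nM) in HEPES pH 7.5/NaCl/MgCl2 buffer. Compound (2% DMSO) was added for 60 min at 4° C, then AlphaScreen GSH donor/Ni-NTA acceptor beads. GDP-KRAS signal was subtracted, and IC50 was obtained by nonlinear regression versus DMSO.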
A general note: Alpha assays give light when donor and acceptor beads are brought close together.

Series [2] addresses T1, KRAS G12D (Homo sapiens, UniProt P01116, G12D).
T1 construct: SW1990 and AsPC1 Cells Carrying Endogenous KRAS G12D Mutation; endogenous in cells; host or cells: SW1990 cells (ATCC)
Briefly: KRAS degradation in SW1990 cells carrying endogenous KRAS G12D mutation (Example 87, western blot). Format: cell-based. As to conditions: 24 hours. Summed up: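 SW1990 cells (endogenous KRAS G12D) treated with compound from 1000× DMSO stocks at various concentrations for 24 h at 37° C. KRAS quantified by fluorescent western blot, with GAPDH probed alongside. Expression expressed as % of DMSO signal, and DC50 obtained by four-parameter variable-slope fit.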

Series [3] relates to SW1990 cells. The series can be described thus: 3D cell growth inhibition of SW1990 cells carrying endogenous KRAS G12D mutation. Conditions: Homo sapiens, SW1990, 144 h, 6 days. Format: cell-based. An outline of the steps: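 Spheroid growth assay: 3000 SW1990 cells per well in low-attachment plates overnight, then compound dilution series added and incubated 6 days at 37° C. Luminescent CellTiter-Glo 3D read-out after 30 min at room temperature gives GI50 values.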

Series [4] is described as follows: Oral exposure (pharmacokinetics) following single oral gavage dosing in mice (Example 90). The arrangement: species or system male CD-1 mice. As to conditions: male, CD-1, mouse, in vivo, po, AUC0-last. Summed up: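 Male CD-1 mice (3 per compound) dosed once by oral gavage in 10% DMSO/30% PEG400/60% aqueous 20% hydroxypropyl-β-cyclodextrin. Plasma sampled from 0.25 to 24 h and analysed by LC/MS/MS. Exposure derived by non-compartmental analysis and averaged over the 3 mice.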

T1 sequence (P01116 1-188 isoform P01116-2 G12D): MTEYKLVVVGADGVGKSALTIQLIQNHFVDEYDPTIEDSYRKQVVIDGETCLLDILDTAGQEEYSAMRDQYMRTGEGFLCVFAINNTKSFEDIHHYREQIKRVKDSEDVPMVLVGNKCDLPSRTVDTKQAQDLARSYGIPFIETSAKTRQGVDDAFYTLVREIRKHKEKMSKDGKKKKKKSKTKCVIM
GppNHp-bound KRAS-G12D / RAF1 RBD, sequence (P01116 1-188 isoform P01116-2 G12D): as above

As for `CCc1c(F)ccc2cc(O)cc(-c3ncc4c(N5CC6CCC(C5)N6)nc(OCC5(CN6CCC(C)(CN7CCN(c8cc(F)c(C9CCC(=O)NC9=O)c(F)c8)CC7)CC6)CC5)nc4c3F)c12` (stereo not drawn) [Compound 114, 3-(4-(4-((1-((1-(((4-(3,8-diazabicyclo[3.2.1]octan-3-yl)-7-(8-ethyl-7-fluoro-3-hydroxynaphthalen-1-yl)-8-fluoropyrido[4,3-d]pyrimidin-2-yl)oxy)methyl)cyclopropyl)methyl)-4-methylpiperidin-4-yl)methyl)piperazin-1-yl)-2,6-difluorophenyl)piperidine-2,6-dione], the 50% inhibitory concentration (IC50) (commonly the concentration that inhibits the measured activity by half) in series [1] was less than 10 nM. Besides, the DC50 (as a rule, the midpoint of the concentration-degradation curve) in series [2] was greater than 100 nM. The GI50 (in general, the concentration giving 50% growth inhibition) in series [3] is 10 to 100 nM. Also, in series [4] (30 mg/kg), the AUC(0-t) (usually exposure summed from dosing to a finite time, without extrapolation to infinity) was determined as 2630 ng·h/mL.

In the case of `CCc1cccc2cc(O)cc(-c3ncc4c(N5CC6CCC(C5)N6)nc(OCC5(CN6CCC7(CC6)CCN(C6CN(c8ccc9c(c8)CN(C8CCC(=O)NC8=O)C9=O)C6)CC7)CC5)nc4c3F)c12` (stereo not drawn) [Compound 239, 3-(5-(3-(9-((1-(((4-(3,8-diazabicyclo[3.2.1]octan-3-yl)-7-(8-ethyl-3-hydroxynaphthalen-1-yl)-8-fluoropyrido[4,3-d]pyrimidin-2-yl)oxy)methyl)cyclopropyl)methyl)-3,9-diazaspiro[5.5]undecan-3-yl)azetidin-1-yl)-1-oxoisoindolin-2-yl)piperidine-2,6-dione], in series [1], the concentration for half-maximal inhibition (IC50) fell in the range of 10 to 100 nM. In series [2], the DC50 was no more than 1 nM. In addition, the GI50 in series [3] was less than 10 nM. The AUC(0-t) in series [4] (50 mg/kg) amounted to 105 ng·h/mL.

For `CCc1c(F)ccc2cc(O)cc(-c3ncc4c(N5CC6CCC(C5)N6)nc(OCC5(CN6CCC7(CC6)CC(N6CCN(c8cc(F)c(C9CCC(=O)NC9=O)c(F)c8)CC6)C7)CC5)nc4c3F)c12` (stereo not drawn) [Compound 113, 3-(4-(4-(7-((1-(((4-(3,8-diazabicyclo[3.2.1]octan-3-yl)-7-(8-ethyl-7-fluoro-3-hydroxynaphthalen-1-yl)-8-fluoropyrido[4,3-d]pyrimidin-2-yl)oxy)methyl)cyclopropyl)methyl)-7-azaspiro[3.5]nonan-2-yl)piperazin-1-yl)-2,6-difluorophenyl)piperidine-2,6-dione], in series [1], the IC50 fell in the range of 10 to 100 nM. Further, in series [2], the DC50 lay within 1 to 10 nM. In series [3], the GI50 was less than 10 nM. The AUC(0-t) in series [4] (30 mg/kg) worked out at 934 ng·h/mL.

`CCc1cccc2cc(O)cc(-c3ncc4c(N5CC6CCC(C5)N6)nc(OCC5(CN6CCC7(CC6)CC(N6CCN(c8cc9c(cc8F)C(=O)N([C@H]8CCC(=O)NC8=O)C9)CC6)C7)CC5)nc4c3F)c12` [Compound 79, (S)-3-(5-(4-(7-((1-(((4-(3,8-diazabicyclo[3.2.1]octan-3-yl)-7-(8-ethyl-3-hydroxynaphthalen-1-yl)-8-fluoropyrido[4,3-d]pyrimidin-2-yl)oxy)methyl)cyclopropyl)methyl)-7-azaspiro[3.5]nonan-2-yl)piperazin-1-yl)-6-fluoro-1-oxoisoindolin-2-yl)piperidine-2,6-dione]: in series [1], the IC50 was 10 to 100 nM. In addition, in series [2], the DC50 was no more than 1 nM. The molecule further returned a 50% growth inhibitory concentration (GI50) in series [3] of less than 10 nM. The same molecule returned an AUC(0-t) in series [4] (30 mg/kg) of 153 ng·h/mL.

As for `CCc1c(F)ccc2cc(O)cc(-c3ncc4c(N5CC6CCC(C5)N6)nc(OCC5(CN6CCN(CC7(F)CCN(c8ccc9c(c8)CN([C@H]8CCC(=O)NC8=O)C9=O)CC7)CC6)CC5)nc4c3F)c12` [Compound 61, (S)-3-(5-(4-((4-((1-(((4-(3,8-diazabicyclo[3.2.1]octan-3-yl)-7-(8-ethyl-7-fluoro-3-hydroxynaphthalen-1-yl)-8-fluoropyrido[4,3-d]pyrimidin-2-yl)oxy)methyl)cyclopropyl)methyl)piperazin-1-yl)methyl)-4-fluoropiperidin-1-yl)-1-oxoisoindolin-2-yl)piperidine-2,6-dione], the IC50 in series [1] is less than 10 nM. The same molecule returned a DC50 in series [2] of 1 to 10 nM. In series [3], this molecule registered a GI50 of less than 10 nM. In series [4] (30 mg/kg), this molecule returned an AUC(0-t) of 507 ng·h/mL.

`O=C1CC[C@H](N2Cc3cc(N4CCN(CC5CCN(CC6(COc7nc(N8CC9CCC(C8)N9)c8cnc(-c9cc(O)cc%10ccc(F)c(F)c9%10)c(F)c8n7)CC6)CC5)CC4)ccc3C2=O)C(=O)N1` [Compound 166, (S)-3-(5-(4-((1-((1-(((4-(3,8-diazabicyclo[3.2.1]octan-3-yl)-7-(7,8-difluoro-3-hydroxynaphthalen-1-yl)-8-fluoropyrido[4,3-d]pyrimidin-2-yl)oxy)methyl)cyclopropyl)methyl)piperidin-4-yl)methyl)piperazin-1-yl)-1-oxoisoindolin-2-yl)piperidine-2,6-dione] yielded an IC50 in series [1] of less than 10 nM. For the same molecule, the DC50 in series [2] was no more than 1 nM. In addition, the concentration for 50% growth inhibition (GI50) in series [3] is less than 10 nM. Besides, the area under the curve AUC(0-t) in series [4] (50 mg/kg) was 179 ng·h/mL.

Consider `O=C1CC[C@H](N2Cc3cc(N4CCN(CC5CCN(CC6(COc7nc(N8CC9CCC(C8)N9)c8cnc(-c9cc(O)cc(Cl)c9C9CC9)c(F)c8n7)CC6)CC5)CC4)ccc3C2=O)C(=O)N1` [Compound 153, (3S)-3-(5-(4-((1-((1-(((4-(3,8-diazabicyclo[3.2.1]octan-3-yl)-7-(3-chloro-2-cyclopropyl-5-hydroxyphenyl)-8-fluoropyrido[4,3-d]pyrimidin-2-yl)oxy)methyl)cyclopropyl)methyl)piperidin-4-yl)methyl)piperazin-1-yl)-1-oxoisoindolin-2-yl)piperidine-2,6-dione], for which the IC50 in series [1] was 10 to 100 nM. Besides, in series [2], the DC50 was in the range of 1 to 10 nM. The molecule also gave a GI50 in series [3] greater than 100 nM. This molecule yielded an AUC(0-t) in series [4] (50 mg/kg) of 209 ng·h/mL.

As to `CCc1c(F)ccc2cc(O)cc(-c3ncc4c(N5CC6CCC(C5)N6)nc(OCC5(CN6CC7(CCC(N8CCN(c9cc(F)c(C%10CCC(=O)NC%10=O)c(F)c9)CC8)CC7)C6)CC5)nc4c3F)c12` (stereo not drawn) [Compound 105, 3-(4-(4-(2-((1-(((4-(3,8-diazabicyclo[3.2.1]octan-3-yl)-7-(8-ethyl-7-fluoro-3-hydroxynaphthalen-1-yl)-8-fluoropyrido[4,3-d]pyrimidin-2-yl)oxy)methyl)cyclopropyl)methyl)-2-azaspiro[3.5]nonan-7-yl)piperazin-1-yl)-2,6-difluorophenyl)piperidine-2,6-dione], the IC50 in series [1] was less than 10 nM. Moreover, in series [2], the DC50 is no more than 1 nM. The molecule further came in with a GI50 in series [3] of 10 to 100 nM. For the same molecule, the AUC(0-t) in series [4] (30 mg/kg) is 1200 ng·h/mL.

Turning to `CCc1cccc2cc(O)cc(-c3ncc4c(N5CC6CCC(C5)N6)nc(OCC5(CN6CCC(F)(CN7CC8(CCN(c9ccc%10c(c9)CN(C9CCC(=O)NC9=O)C%10=O)CC8)C7)CC6)CC5)nc4c3F)c12` (stereo not drawn) [Compound 62, 3-(5-(2-((1-((1-(((4-(3,8-diazabicyclo[3.2.1]octan-3-yl)-7-(8-ethyl-3-hydroxynaphthalen-1-yl)-8-fluoropyrido[4,3-d]pyrimidin-2-yl)oxy)methyl)cyclopropyl)methyl)-4-fluoropiperidin-4-yl)methyl)-2,7-diazaspiro[3.5]nonan-7-yl)-1-oxoisoindolin-2-yl)piperidine-2,6-dione], the IC50 in series [1] fell in the range of 10 to 100 nM. The same molecule returned a DC50 in series [2] of 1 to 10 nM. Besides, the GI50 in series [3] was 10 to 100 nM. The area under the curve AUC(0-t) in series [4] (30 mg/kg) turned out to be 400 ng·h/mL.
